Source: the CheMixHub ionic liquid set
± gives the uncertainty stated by the source.

Assay: xn = mol fraction of the nth substance listed
Conditions: 101 kPa

CCCCCCCCCCCCCCCC[n+]1ccccc1.O=C([O-])c1ccccc1O + NCC(=O)NCC(=O)O + O
electrical conductivity [S/m]
Conditions	303.15 K	308.15 K	313.15 K
x2 = 0.0009002, x1 = 3.6e-07	–	0.00265 ± 0.00016	0.00314 ± 0.00019
x2 = 0.0009002, x1 = 7.2e-07	–	0.0029 ± 0.00017	0.00341 ± 0.0002
x2 = 0.0009002, x1 = 1.09e-06	–	0.00318 ± 0.00019	0.00371 ± 0.00022
x2 = 0.0009002, x1 = 1.27e-06	–	0.00329 ± 0.0002	0.00384 ± 0.00023
x2 = 0.0009002, x1 = 1.63e-06	–	0.00345 ± 0.00021	0.00402 ± 0.00024
x2 = 0.0009002, x1 = 1.99e-06	–	0.00366 ± 0.00022	0.00426 ± 0.00026
x2 = 0.0009002, x1 = 2.36e-06	–	0.00389 ± 0.00023	0.00452 ± 0.00027
x2 = 0.0009002, x1 = 2.72e-06	–	–	0.00473 ± 0.00028
x2 = 0.0009002, x1 = 3.08e-06	–	0.00419 ± 0.00025	0.00487 ± 0.00029
x2 = 0.0009002, x1 = 3.44e-06	–	0.00434 ± 0.00026	0.00504 ± 0.0003
x2 = 0.0009002, x1 = 3.81e-06	–	0.00452 ± 0.00027	0.00524 ± 0.00031
x2 = 0.0009002, x1 = 4.35e-06	–	0.00468 ± 0.00028	0.00543 ± 0.00033
x2 = 0.0009002, x1 = 4.71e-06	–	0.00487 ± 0.00029	0.00562 ± 0.00034
x2 = 0.0009002, x1 = 5.26e-06	–	0.00501 ± 0.0003	0.00579 ± 0.00035
x2 = 0.0009002, x1 = 5.62e-06	0.0045 ± 0.00027	0.00518 ± 0.00031	0.00595 ± 0.00036
x2 = 0.001799, x1 = 1.8e-07	0.00363 ± 0.00022	0.00434 ± 0.00026	0.00519 ± 0.00031
x2 = 0.001799, x1 = 3.6e-07	0.00371 ± 0.00022	0.00444 ± 0.00027	0.00529 ± 0.00032
x2 = 0.001799, x1 = 5.5e-07	0.00382 ± 0.00023	0.00456 ± 0.00027	–
x2 = 0.001799, x1 = 7.3e-07	0.00389 ± 0.00023	0.00475 ± 0.00029	0.00563 ± 0.00034
x2 = 0.001799, x1 = 9.1e-07	0.0041 ± 0.00025	0.00487 ± 0.00029	0.00576 ± 0.00035
x2 = 0.001799, x1 = 1.28e-06	0.00422 ± 0.00025	0.00501 ± 0.0003	0.00592 ± 0.00036
x2 = 0.001799, x1 = 1.46e-06	0.00438 ± 0.00026	0.00519 ± 0.00031	0.00613 ± 0.00037
x2 = 0.001799, x1 = 1.82e-06	0.00454 ± 0.00027	0.00537 ± 0.00032	0.00632 ± 0.00038
x2 = 0.001799, x1 = 2.19e-06	0.00469 ± 0.00028	0.00555 ± 0.00033	0.00653 ± 0.00039
x2 = 0.001799, x1 = 2.55e-06	0.00484 ± 0.00029	0.00572 ± 0.00034	0.00673 ± 0.0004
x2 = 0.001799, x1 = 2.92e-06	0.00495 ± 0.0003	0.00584 ± 0.00035	0.00688 ± 0.00041
x2 = 0.001799, x1 = 3.1e-06	–	–	0.00701 ± 0.00042
x2 = 0.001799, x1 = 3.46e-06	0.00515 ± 0.00031	0.00607 ± 0.00036	0.00715 ± 0.00043
x2 = 0.001799, x1 = 3.83e-06	0.00526 ± 0.00032	0.00619 ± 0.00037	0.00728 ± 0.00044
x2 = 0.001799, x1 = 4.01e-06	–	–	0.00738 ± 0.00044
